Measurements published in article PMC8395308 (International Journal of Molecular Sciences, 2021).
Values joined by “and” are separate entries in the source; they are usually repeats but may differ in a detail not shown here. Equal values may be shown once. “Also recorded” adds a separate entry of the source. Where a name gives a salt, the structure may show the parent alone.

Experiments:
[1] = biological target: receptor binding domain (HC fragment) of BoNT/A binding to the fourth luminal domain of SV2C (Clostridium botulinum, UniProt P0DPI0); test: biochemical; design: species or system Mus musculus; conditions: for IC50: IC50 (µM), TSP-RSP interaction inhibition; for inhibition at 100 µM: read-out: Maximal Inhibition (%)
Sequence of receptor binding domain (HC fragment) of BoNT/A binding to the fourth luminal domain of SV2C (P0DPI0 872-1296 limits assumed): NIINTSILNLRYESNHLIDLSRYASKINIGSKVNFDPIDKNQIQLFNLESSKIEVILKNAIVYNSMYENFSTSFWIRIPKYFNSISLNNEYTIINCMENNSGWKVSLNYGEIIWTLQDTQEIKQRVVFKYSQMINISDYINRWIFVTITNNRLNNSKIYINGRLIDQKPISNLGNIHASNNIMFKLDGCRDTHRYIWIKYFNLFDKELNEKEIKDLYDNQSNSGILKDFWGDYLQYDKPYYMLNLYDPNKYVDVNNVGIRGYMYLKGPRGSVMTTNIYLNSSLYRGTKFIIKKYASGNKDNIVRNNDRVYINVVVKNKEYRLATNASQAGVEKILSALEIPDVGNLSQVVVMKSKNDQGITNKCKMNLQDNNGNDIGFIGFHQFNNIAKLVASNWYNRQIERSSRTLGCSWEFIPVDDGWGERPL

BoNT/A = BoNT/A (Clostridium botulinum, UniProt P0DPI0); design: species or system CD-1 mice; conditions: mouse, in vivo; for Survival (protection) of treated mice / Therapeutic effect versus solvent (log-rank test): ip
Sequence of BoNT/A (P0DPI0 2-448 limits assumed): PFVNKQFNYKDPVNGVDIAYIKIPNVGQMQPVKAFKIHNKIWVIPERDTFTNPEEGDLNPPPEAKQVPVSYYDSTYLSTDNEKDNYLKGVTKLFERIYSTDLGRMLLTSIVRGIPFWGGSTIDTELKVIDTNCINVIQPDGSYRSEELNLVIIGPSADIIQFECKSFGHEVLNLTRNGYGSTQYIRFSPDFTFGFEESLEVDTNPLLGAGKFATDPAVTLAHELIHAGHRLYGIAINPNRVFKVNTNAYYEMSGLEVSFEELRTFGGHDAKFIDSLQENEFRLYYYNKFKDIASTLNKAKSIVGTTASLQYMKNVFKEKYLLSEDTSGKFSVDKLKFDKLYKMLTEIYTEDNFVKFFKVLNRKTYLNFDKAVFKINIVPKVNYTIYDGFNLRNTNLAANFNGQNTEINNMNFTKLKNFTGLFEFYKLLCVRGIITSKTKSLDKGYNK
Sequence of BoNT/A (P0DPI0 449-1296 limits assumed): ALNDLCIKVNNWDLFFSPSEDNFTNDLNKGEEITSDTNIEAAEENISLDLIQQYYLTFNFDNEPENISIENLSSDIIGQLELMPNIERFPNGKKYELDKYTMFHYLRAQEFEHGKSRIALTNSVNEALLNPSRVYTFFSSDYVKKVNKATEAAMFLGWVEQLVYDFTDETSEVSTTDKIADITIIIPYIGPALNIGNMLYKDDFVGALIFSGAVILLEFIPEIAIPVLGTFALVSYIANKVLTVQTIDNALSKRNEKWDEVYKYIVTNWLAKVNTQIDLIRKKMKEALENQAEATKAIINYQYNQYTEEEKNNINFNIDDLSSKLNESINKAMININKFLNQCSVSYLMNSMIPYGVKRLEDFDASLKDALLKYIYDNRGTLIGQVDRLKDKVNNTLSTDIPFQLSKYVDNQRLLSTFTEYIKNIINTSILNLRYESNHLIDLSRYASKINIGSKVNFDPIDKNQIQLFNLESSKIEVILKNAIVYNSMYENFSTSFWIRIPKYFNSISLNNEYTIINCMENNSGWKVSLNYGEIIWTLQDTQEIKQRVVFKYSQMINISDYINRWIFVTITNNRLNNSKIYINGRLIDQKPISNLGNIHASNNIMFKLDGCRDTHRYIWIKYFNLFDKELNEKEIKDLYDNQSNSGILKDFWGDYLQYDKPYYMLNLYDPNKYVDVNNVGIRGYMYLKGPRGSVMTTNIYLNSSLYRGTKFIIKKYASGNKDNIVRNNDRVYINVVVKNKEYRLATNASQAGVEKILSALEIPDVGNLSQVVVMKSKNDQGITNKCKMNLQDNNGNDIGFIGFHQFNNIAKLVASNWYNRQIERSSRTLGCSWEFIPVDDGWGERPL

BoNT/E = tested on: BoNT/E; design: species or system CD-1 mice; conditions: mouse, in vivo

| Structure (SMILES) | IC50 [1] | inhibition at 100 µM [1] | median survival time (hr) treated (BoNT/A) | survival time of the nonsurviving treated animals (BoNT/A) | Survival (protection) of treated mice (BoNT/A) | Therapeutic effect versus solvent (log-rank test) (BoNT/A) | median TTD / median survival time of treated mice (BoNT/E) | median survival time (hr) treated (BoNT/E) | median survival time / TTD in the treated group (BoNT/A) | Maximal Inhibition (%) [1] | Inhibition of the interaction between HC/A fragment and SV2C [1] | Survival of treated mice (BoNT/E; ip) | Therapeutic effect versus solvent (log-rank test) (BoNT/E; ip) |
| --- | --- | --- | --- | --- | --- | --- | --- | --- | --- | --- | --- | --- | --- |
| NC(Cc1cc(O)c(O)cc1O)C(=O)O (racemic) [6-OHD, 6-Hydroxy-DL-DOPA] | 1 µM | 98% | 28.7 h | 28.7 h | 33% | Significant beneficial therapeutic effects | 9.8 h | 9.8 h |  |  |  |  |  |
| C=CC1=C(C)c2cc3[nH]c(cc4nc(cc5[nH]c(cc1n2)c(C)c5CCC(=O)O)C(CCC(=O)O)=C4C)c(C)c3C=C [PPIX, Protoporphyrin IX disodium] | 84 µM | ~80% | 26.0 h |  |  | Significant beneficial therapeutic effects | 10.7 h | 10.7 h | 26.0 h |  |  |  |  |
| CO/N=C(\C(=O)N[C@@H]1C(=O)N2C(C(=O)O)=C(COC(C)=O)CS[C@H]12)c1csc(N)n1 [Cefotaxime sodium] | 3 µM | ~90% | 21.0 h |  |  | did not exert beneficial therapeutic effects |  |  |  | 91% |  |  |  |
| C[C@@](Cc1ccc(O)c(O)c1)(NN)C(=O)O [carbidopa] |  |  |  |  |  |  |  |  |  |  | failed to inhibit |  |  |
| Nc1nc2[nH]c(=O)cnc2c(=O)[nH]1 [Isoxanthopterin] | 34 µM | 68% | 26.67 h |  |  | did not exert beneficial therapeutic effects |  |  |  |  |  |  |  |
| NC(CO)C(=O)NNCc1ccc(O)c(O)c1O (stereo not drawn) [Benserazide, Benserazide hydrochloride] | 18 µM | 95% | 29.8 h |  |  | Significant beneficial therapeutic effects | 10.7 h | 10.7 h | 29.8 h |  |  |  |  |
| NCCOc1cc(C(=O)Nc2cc(OCCN)c3ccccc3n2)nc(C(=O)Nc2cc(OCCN)c3ccccc3n2)c1 [Pyridostatin trifluoroacetate salt] | 4 µM | ~80% | 22.17 h |  |  | did not exert beneficial therapeutic effects |  |  |  |  |  |  |  |
| O=C(O)C1=CC(=C(c2ccc(O)c(C(=O)O)c2)c2ccc(O)c(C(=O)O)c2)C=CC1=O [ATA, Aurintricarboxylic acid] | 2 µM | 100% |  | 96 h | 92% and 91.6% | Significant beneficial therapeutic effects |  |  |  |  |  | 100% | fully protective; also recorded: completely protected |
| CC(=O)OCC1=C(C(=O)O)N2C(=O)[C@@H](NC(=O)CCC[C@@H](N)C(=O)O)[C@H]2SC1 [Cephalosporin C zinc salt] | 27 µM | ~90% |  |  |  |  |  |  |  |  |  |  |  |
